According to patent publication US8530404B2, “Compounds and methods for treatment of cancer” (FibroGen, Inc., priority 2005, dated 2013):
Marks after values point to notes of the source that are not given here.

Legend:
HCT116-GFP colon tumors = assay: Orthotopically implanted human HCT116-GFP colon tumor mouse xenograft (Example 4); type: in vivo; conditions: 60 mg/kg intraperitoneal at four day intervals, three doses
Method: Procedures were carried out as described above for Example 3, except that the tumors of GFP-transfected H-460 cells were replaced with HCT116-GFP colon tumors, and surgical orthotopic implantation was directly into colon tissue.
The HCT116 tumor model used here is a well-characterized representative colon xenograft model. The isolation of the human HCT116 tumor cell line from a human colon carcinoma has been described. (Brattain et al (1981) Cancer Res 41:1751-1756.) To aid in the detection of tumors and metastases, HCT116 cells were transduced with genes directing the expression of fluorescent proteins (e.g., HCT116-GFP). The use of fluorescent HCT116-derived tumors in similar studies has been described previously. (Ross et al (2000) Nat Genet 24:227-235.)
HCT116-GFP tumor fragments harvested from the stock animals were transplanted into animals by surgical orthotopic implantation (SOI) as follows. The animals were anesthetized with isoflurane and the surgical area was sterilized using iodine and alcohol. After proper exposure of the colon following a lower midline abdominal incision, the serosa of the colon was removed and two pieces of 1 mm^3 tumor fragments per mouse were implanted. An 8-0 surgical suture was used to penetrate these small tumor pieces and suture them on the wall of the intestine. The intestine was then returned to the abdominal cavity. The incision in the abdominal wall was closed with a 6-0 surgical suture in one layer. The animals were kept under isoflurane anesthesia during surgery. All procedures of the operation described above were performed under a 7× magnification microscope (Olympus). Animals were kept in a barrier facility under HEPA filtration.
Administration of Compound A or 5-FU (5-Flurouracil) to the animals was initiated three days following tumor transplantation. 5-FU, a chemotherapeutic agent used as a positive control, was administered by intraperitoneal injection (60 mg/kg) at four day intervals for a total of three doses. Compound A was administered at either 20 mg/kg or 60 mg/kg three times per week. Tumor volumes were measured at day 15, day 22, and day 29.

[1] = tested on: human H-460-GFP lung tumors; assay: Orthotopically implanted human H-460-GFP lung tumor mouse xenograft, survival and metastasis (Example 3); type: in vivo; conditions: 7.5 mg/kg i.v. on days 3, 7, 11
Method: To examine the effect of methods and compounds of the present invention in a metastatic model of tumor progression, compounds of the invention were administered to orthotopically implanted H-460-GFP xenografted animals. Tumor models employing surgical orthotopic implantation (SOI) into the organ of origin of the original tumor are regarded as representative of cancer progression and metastasis in humans. Orthotopic implantation of H-460 increases the rate of tumor metastasis.
This experiment is carried out as described in Example 1 above, with the following modifications. To aid in identification and scoring of metastasis, the human H-460 lung cancer cell line was replaced by genetically-engineered tumors of GFP-transfected H-460 cells. 1-2 mm^3 H460-GFP lung tumor fragments were implanted by surgical orthotopic implantation (SOI) and sutured directly into lung tissue. (Yang et al., (1998) Cancer Res 58:4217-4221.) Dosing was initiated immediately after successful confirmation of tumor take by fluorescent GFP imaging (˜5 days following tumor implantation). Doxorubicin (DOX, 7.5 mg/kg, i.v. administration) was used as a chemotherapy control, and was administered on treatment days 3, 7, and 11.
In addition to weekly caliper measurement of primary tumor size, GFP imaging was performed on animals to monitor primary tumor progression and metastasis, starting the first day of treatment. Study endpoints were reached when an average tumor size of 2 cc or three morbid mice appear in any one group, whichever occurs first, regardless of treatment duration. Each animal was checked daily for mortality or signs of morbidity. Morbid animals were frozen. All animals, including dead animals, were examined by GFP imaging for primary tumor and metastasis at necropsy. Imaging and caliper measurements were used to determine the effects of treatment. Primary tumors were excised, measured and weighed at necropsy. Blood samples were taken during terminal sacrifice and complete blood counts (CBC) and reticulocyte analysis were performed.
Tumor metastasis is associated with increased morbidity and mortality in humans with metastatic cancer and in animal models of metastatic cancer. […] The increased morbidity and mortality were recorded and animals were preserved for subsequent necropsy. The study was terminated after >3 animals were found morbid in the vehicle group on treatment day 14, at which point the remaining animals were sacrificed to evaluate and compare tumor progression in the various treatment groups.
To determine metastatic frequency, the thoracic and abdominal cavities of animals were examined by fluorescent imaging.

[2] = Body weight in H-460 xenograft mice (Example 1); type: in vivo, mouse; conditions: 15 mg/kg i.v.
Method: (§1) Sizes of the primary tumors were measured through the skin with calipers once per week. Tumor volumes were calculated by the formula V═(W^2*L)/2. Body weight of the mice in each group was also measured once per week during the experimental period. All animals were sacrificed following thirty-two days of treatment. Primary tumors were excised and weighed on an electronic balance. Blood samples were taken during terminal sacrifice and placed in microhematocrit tubes containing EDTA. Complete Blood Counts (CBC) and reticulocyte analysis were performed with the Cell Dyn 3700 analyzer (Abbott Diagnostics), as described by the manufacturer.
Thus, differences in tumor progression as measured by mean tumor volumes could not be attributed to any generalized toxicity or suppression of normal metabolism that might have been detected by changes in body weights.

[3] = Complete blood counts and reticulocyte analysis in H-460 xenograft mice (Example 1); type: in vivo, mouse; conditions: study end; 15 mg/kg i.v.
Method: as §1

H460 tumor cells = assay: Subcutaneous H460 lung tumor xenograft, tumor growth delay study in combination with chemotherapeutics (Example 6); type: in vivo, mouse; conditions: Cmpd A 60 mg/kg p.o., paclitaxel 15 mg/kg i.v., carboplatin 120 mg/kg i.p.; for Median TTE (Time-to-Endpoint, tumor volume >= 2 cc): vehicle group 16.2
Method: This study was used to determine the effect of combined treatments where compounds and methods of the invention were combined with conventional anti-tumor therapies. These experiments were performed essentially as described above in Example 3, except that 1×10^7 H460 tumor cells were implanted subcutaneously to the flanks of female Harlan nude animals. The number of animals in each group was 10. Treatments were initiated when tumors reached an average size of approximately 100 mm^3.
The study design was representative of tumor progression studies of the TGD (Tumor Growth Delay) type, using a protocol that required individual animals to be humanely euthanized after reaching a set endpoint of tumor volume greater than or equal to 2 cc.
These two chemotherapeutic agents are of two broad classes of conventional anti-tumor therapeutics: microtubule poisons (paclitaxcel); and DNA-directed agents, including the sub-classification of DNA alkylating agents (carboplatin). In tumor-bearing human patients, conventional anti-tumor therapy commonly use of one or both classes of chemotherapeutic agents.
The study was initiated with administration of conventional anti-tumor treatment or vehicle control, and followed one day after with administration of Compound A or vehicle control. […] (See Table 11 and Table 12 for compound and chemotherapeutic agent dosing schedule.)
Tumor progression was determined for each treatment group and is presented as median Time-to-Endpoint (TTE).

human A549 lung tumors = assay: Subcutaneously implanted human A549 lung tumor mouse xenograft (Example 2); type: in vivo
human H-460 lung tumors = assay: Subcutaneously implanted human H-460 lung tumor mouse xenograft (Example 1); type: in vivo; conditions: 15 mg/kg i.v.
Excerpt: Immuno-compromised athymic CD-1 nu/nu nude mice males (5-6 weeks old) were used in this study (Charles River Laboratories, Wilmington, Mass.). Animals were maintained in a HEPA-filtered environment during the experimental period. Cages, food, and bedding were autoclaved. Animal diets were obtained from Harlan Teklad (Madison, Wis.). […] The human H460 lung cancer cell line used was obtained from the National Cancer Institute. (Brower et al., (1986) Cancer Res 46:798-806.) Xenografted H-460 tumors are sensitive to chemotherapeutics commonly used in treatment of lung cancer. […] A stock tumor was established by subcutaneously injecting a cell suspension into nude mice. The resulting tumor was maintained in nude mice subcutaneously as tumor stock prior to use. Tumor implantation was performed when the stock tumors were in log phase of growth. Before implantation, tumor tissue was harvested from stock mice and placed in RPMI-1640 medium. Necrotic tissues were dissected away and viable tissues were cut into 1-2 mm^2 pieces. Tumor fragments were then transplanted subcutaneously to the right flank of the nude mice. Treatment (administration of compounds of the present invention) was started when the inoculated tumors reached approximately 100 mm^3, and continued for four weeks. […] [table] Sizes of the primary tumors were measured through the skin with calipers once per week. […] Body weight of the mice in each group was also measured once per week during the experimental period. All animals were sacrificed following thirty-two days of treatment. Primary tumors were excised and weighed on an electronic balance. Blood samples were taken during terminal sacrifice and placed in microhematocrit tubes containing EDTA. Complete Blood Counts (CBC) and reticulocyte analysis were performed with the Cell Dyn 3700 analyzer (Abbott Diagnostics), as described by the manufacturer.

## O=c1[nH]cc(F)c(=O)[nH]1 [Compound 5-FU, 5-Flurouracil, reference compound]
HCT116-GFP colon tumors; Treatment Day 15
  mean tumor volume (calipers, mean +/- SD): 0 +/− 0
HCT116-GFP colon tumors; Treatment Day 22
  mean tumor volume (calipers, mean +/- SD): 1 +/− 4
HCT116-GFP colon tumors; Treatment Day 29
  mean tumor volume (calipers, mean +/- SD): 8 +/− 13

## COc1cccc2c1C(=O)c1c(O)c3c(c(O)c1C2=O)C[C@@](O)(C(=O)CO)C[C@@H]3O[C@H]1C[C@H](N)[C@H](O)[C@H](C)O1 [DOX, Doxorubicin, reference compound]
[1]; vehicle 9/10
  Metastatic Incidence (proportion of animals exhibiting mediastinal lymph node metastasis): 4/10^#
[1]; treatment day 9
  proportion of surviving animals: 10/10
[1]; treatment day 11
  proportion of surviving animals: 10/10
[1]; treatment day 12
  proportion of surviving animals: 10/10
[1]; treatment day 13
  proportion of surviving animals: 10/10
[1]; treatment day 14
  proportion of surviving animals: 10/10

## CC(=O)O[C@H]1C(=O)[C@@]2(C)[C@H]([C@H](OC(=O)c3ccccc3)[C@]3(O)C[C@H](OC(=O)[C@H](O)[C@@H](NC(=O)c4ccccc4)c4ccccc4)C(C)=C1C3(C)C)[C@]1(OC(C)=O)CO[C@@H]1C[C@@H]2O [Taxol, paclitaxel, reference compound]
[2]; day 0
  mean animal body weight: 26.6 grams
[2]; day 10
  mean animal body weight: 29.5 grams
[2]; day 17
  mean animal body weight: 30.6 grams
[2]; day 24
  mean animal body weight: 31.1 grams
[2]; day 31
  mean animal body weight: 30.9 grams
[3]
  Abs Retic (reticulocyte count): 462
  Baso %: 0.67%
  Baso (basophils): 70 µL⁻¹
  EOS %: 0.83%
  Eos (eosinophil count): 70 µL⁻¹
  HCT (hematocrit): 41.5%
  HGB (hemoglobin): 14.1 g/dL
  IRF (immature RET fraction): 0.56
  Lymph %: 24.7%
  Lymph (lymphocytes): 2600 µL⁻¹
  MCH (mean corpuscular hemoglobin): 15.6 pg
  MCV (mean corpuscular volume): 45.9 fL
  Mono (monocytes): 300 µL⁻¹
  Neut %: 70.8%
  Neut (neutrophils): 7400 µL⁻¹
  PLAT (platelets): 1.943e+06 µL⁻¹
  RBC (red blood cells): 9.03e+06 µL⁻¹
  RDW (RBC distribution width): 21.8%
  RET (reticulocytes): 5.1%
  WBC (white blood cells): 10400 µL⁻¹
H460 tumor cells
  % TGD, Percent Tumor Growth Delay (vs. Group control): 104%
  T-C (Test-control, difference of medians): 16.9 days
  Median TTE (Time-to-Endpoint, tumor volume >= 2 cc): 33.1 days
Human A549 lung tumors; 15 mg/kg i.v.
  tumor weight at necropsy, Mean: 0.45 g
Human A549 lung tumors; week 0, 15 mg/kg i.v.
  A549 mean tumor volume: 106 mm^3
Human A549 lung tumors; week 1, 15 mg/kg i.v.
  A549 mean tumor volume: 130 mm^3
Human A549 lung tumors; week 2, 15 mg/kg i.v.
  A549 mean tumor volume: 152 mm^3
Human A549 lung tumors; week 3, 15 mg/kg i.v.
  A549 mean tumor volume: 177 mm^3
Human A549 lung tumors; week 4, 15 mg/kg i.v.
  A549 mean tumor volume: 179 mm^3
Human A549 lung tumors; week 5, 15 mg/kg i.v.
  A549 mean tumor volume: 186 mm^3
Human A549 lung tumors; week 6, 15 mg/kg i.v.
  A549 mean tumor volume: 231 mm^3
Human A549 lung tumors; week 7, 15 mg/kg i.v.
  A549 mean tumor volume: 275 mm^3
Human A549 lung tumors; week 8, 15 mg/kg i.v.
  A549 mean tumor volume: 347 mm^3
Human A549 lung tumors; week 9, 15 mg/kg i.v.
  A549 mean tumor volume: 360 mm^3
Human A549 lung tumors; within 1 week (7 days) from start, Taxol 15 mg/kg i.v., vehicle control 45%
  increase in mean tumor volume: 23%
Human H-460 lung tumors; day 0
  mean tumor volume: 83 mm^3
Human H-460 lung tumors; day 10
  mean tumor volume: 387 mm^3
Human H-460 lung tumors; day 17
  mean tumor volume: 813** mm^3
Human H-460 lung tumors; day 24
  mean tumor volume: 1160** mm^3
Human H-460 lung tumors; day 31
  mean tumor volume: 1292** mm^3
Human H-460 lung tumors; day 32
  Mean Tumor Weight at Necropsy: 1.59 g

## N.N.O=C([O-])C1(C(=O)[O-])CCC1.[Pt+2] [carboplatin]
H460 tumor cells
  % TGD, Percent Tumor Growth Delay (vs. Group control): 107%
  T-C (Test-control, difference of medians): 17.3 days
  Median TTE (Time-to-Endpoint, tumor volume >= 2 cc): 33.5 days
